Assay results: patent publication US20030186941A1, “Cyclopenteneone derivatives” (priority 1999, published 2003)
Read-outs that look alike come from different tables or passages of the source.

Columns and labels:
HSF1 = molecular target: T1, HSF1 (Homo sapiens, UniProt Q00613); details: at a concentration of 125-500 μM; cited from earlier work
T1 sequence (Q00613 1-529): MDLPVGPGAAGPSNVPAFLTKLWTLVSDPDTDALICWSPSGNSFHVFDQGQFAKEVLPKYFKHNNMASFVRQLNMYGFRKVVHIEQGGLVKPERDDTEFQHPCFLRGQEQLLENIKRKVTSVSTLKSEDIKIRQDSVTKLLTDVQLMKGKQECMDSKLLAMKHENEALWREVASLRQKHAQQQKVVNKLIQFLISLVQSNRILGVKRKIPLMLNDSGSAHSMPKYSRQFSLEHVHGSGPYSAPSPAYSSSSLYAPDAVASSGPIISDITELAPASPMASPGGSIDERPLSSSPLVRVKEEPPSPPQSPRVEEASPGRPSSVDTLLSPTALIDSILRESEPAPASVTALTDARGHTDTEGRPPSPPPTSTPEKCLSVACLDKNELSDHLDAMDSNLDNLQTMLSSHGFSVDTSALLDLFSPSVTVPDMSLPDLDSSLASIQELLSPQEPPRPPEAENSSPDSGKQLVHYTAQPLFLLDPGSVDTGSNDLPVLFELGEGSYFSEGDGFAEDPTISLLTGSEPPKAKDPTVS

NF-κB [1] = molecular target: T2, NF-κB (Homo sapiens, UniProt Q04206); details: at a concentration of 125-500 μM; cited from earlier work
NF-κB [2] = molecular target: T2, NF-κB; test: EMSA of NF-κB DNA-binding activity in TPA-stimulated Jurkat T cells; format: cell-based; design: endogenous in cells; host or cells: Jurkat T cells (human lymphoblastoid), TPA-stimulated; whole-cell extracts; details: test compound 1 hour then TPA 25 ng/ml, extracts after 3 hours
Experimental: Methods: Human lymphoblastoid Jurkat T cells were grown at 37° C. in a 5% CO2 atmosphere in RPM1 1640 medium (GIBCO BRL, Gaithersburg, Md.) supplemented with 10% fetal calf serum (FCS, Hyclone Europe Ltd, UK) 2 mM glutamine and antibiotics according to the method described by A. Rossi et al. (Proc. Natl. Acad. Sci. USA 94: 746-750, 1997). The test compounds were stored as a 100% ethanolic stock solution (100 mM) or in DMSO (100 mM and diluted to the appropriate concentration in culture medium at the time of use. Cells were treated with different concentrations of test compound for 1 hour and then stimulated with 12-O-tetradecanoylphorbol-13-acetate (TPA, 25 ng/ml), which is a strong inducer of NF-κB. Control cells received an equal amount of control diluent. After 3 hours whole-cell extracts were prepared and subjected to analysis of DNA-binding activity by EMSA (Electrophoretic Mobility Shift Assay) for detection of HSF or NF-κB activation, according to the method described by A. Rossi et al. (Proc. Natl. Acad. Sci. USA 94: 746-750, 1997).
Specificity of protein-DNA complexes was verified by immunoreactivity with polyclonal antibodies specific for p65 (Rel A) or for HSF-1, for NF-κB and HSF respectively. Quantitative evaluation of NF-κB- and HSF-DNA complex formation was determined by Molecular Dynamics Phosphorlmager (MDP) analysis and was expressed in arbitrary units, as described in A. Rossi et al.(J. Biol. Chem. 273: 16446-16452, 1998). The results from representative experiments are shown in FIGS. 1(b), 2(b), 3(b), 4(b), 5(b), 6 and 7(b) for compounds CTC-31, CTC-32, CTC-33, CTC-34, CTC-35, CTC-36 and CTC-45, as identified above.

37RC cells [3] = test: Toxicity to uninfected 37RC cells, determined visually by microscopy; format: cell-based, Monkey
[4] = test system: parainfluenza Sendai virus (SV); test: microbe, parasite or virus in culture; format: cell-based; details: for inhibition of Sendai virus replication: 37RC cells, virus yield at 24 hours after infection; for IC50: Respirovirus muris
[5] = test system: Herpes simplex virus type one (HSV-1), strain F; test: HSV-1 replication in Hep-2 cells, virus titre by CPE 50% assay on VERO cells; format: cell-based, Herpes simplex virus type 1; details: Human alphaherpesvirus 1, HEp-2, 24 h, read-out: ID50 (50% inhibitory dose/concentration), HSV-1 virus replication
Experimental: Methods: Human Hep-2 laryngeal carcinoma cells and monkey VERO cells were grown at 37° C. under the conditions described in Example 9 for T cells. Cell viability was determined by dye exclusion technique or by 3-(4,5-dimethylthiazol-2-yl)-2,5-diphenyl-tetrazolium bromide (MTT, Sigma Chemical Co.) to MTT formazan assay, as described by F. Denizot and R. Lang (J. Immunol. Methods 89: 271-277, 1986). Herpes simplex virus type one (HSV-1), strain F grown in VERO cells, was used at a multiplicity of infection of 10 plaque forming units (PFU) per cell. Confluent Hep-2 cell monolayers were infected with HSV-1 for 1 h at 37° C. After this time, virus inocula were removed and cells incubated in RPMI 1640 medium containing 2% FCS. Different concentrations of CTC-35 were added to the culture after the 1 h adsorption period, and maintained in the medium for the duration of the experiment. […] HSV-1 virus titres were determined 24 hours after infection by cytopathic effect 50% (CPE 50%) assay on confluent VERO cells monolayers in 96-well tissue culture plates (six dilutions for each sample, eight wells for each dilution), as described by F. Pica et al. (Antiviral Res. 20: 193-208, 1993). The dilution that gives 50% cytopathic effect were determined by the interpolating procedure of Reed and Muensch, as described by E. Rodriguez-Boulan Methods Enzymol. 98: 486-501, 1983).

A549 cells = test: MTT cell viability assay, uninfected A549 cells; format: cell-based, Human; details: 24 hours
Experimental: (§1) Cell viability was determined by the 3-(4,5-dimethylthiazol-2-yl)-2,5-diphenyltetrazolium bromide MIT) assay. Uninfected A549 (7.5×10^4 cells/well in 96 well plates) or 37RC cells (2.5×10^4 cells/well in 96 well plates) were treated with different concentrations of CTC35 or ethanol diluent for 24 hours. After this time, […] of a 0.5% MIT solution in PBS was added to the monolayers and the mixture was incubated for 2 h at 37° C. Reduced MTT (formazan) was extracted from cells by adding 100 μl of acidic isopropanol containing 10% Triton X-100, and formazan absorbance was measured in an ELISA microplate reader at two different wavelengths (540 and 690 nm).

37RC cells [6] = test: MTT cell viability assay, uninfected 37RC cells; format: cell-based, Monkey; details: 24 hours
Experimental: as §1

[7] = anaesthetized rat, intravenous infusion, doses from 30 μg/kg/min; cited from earlier work
[8] = Sendai virus in 37RC cells, at 24 hours, read-out: ID50 (the source's name)

T2 sequence (Q04206 whole entry): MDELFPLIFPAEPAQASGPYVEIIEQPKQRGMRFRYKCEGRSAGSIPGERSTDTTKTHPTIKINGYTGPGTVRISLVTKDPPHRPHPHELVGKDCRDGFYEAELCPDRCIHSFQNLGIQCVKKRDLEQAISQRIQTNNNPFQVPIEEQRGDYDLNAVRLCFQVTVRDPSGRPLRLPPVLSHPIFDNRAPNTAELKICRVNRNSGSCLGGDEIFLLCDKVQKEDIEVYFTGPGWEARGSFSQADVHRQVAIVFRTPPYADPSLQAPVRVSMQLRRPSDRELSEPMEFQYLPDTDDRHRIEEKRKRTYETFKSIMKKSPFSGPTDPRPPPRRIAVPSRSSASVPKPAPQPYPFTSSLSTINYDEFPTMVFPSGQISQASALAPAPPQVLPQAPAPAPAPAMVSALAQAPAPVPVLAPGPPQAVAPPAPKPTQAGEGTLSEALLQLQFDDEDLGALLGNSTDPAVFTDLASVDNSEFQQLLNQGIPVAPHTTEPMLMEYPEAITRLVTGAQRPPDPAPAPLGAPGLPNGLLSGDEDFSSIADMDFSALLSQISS
T2 sequence (P19838 1-433 partner limits assumed): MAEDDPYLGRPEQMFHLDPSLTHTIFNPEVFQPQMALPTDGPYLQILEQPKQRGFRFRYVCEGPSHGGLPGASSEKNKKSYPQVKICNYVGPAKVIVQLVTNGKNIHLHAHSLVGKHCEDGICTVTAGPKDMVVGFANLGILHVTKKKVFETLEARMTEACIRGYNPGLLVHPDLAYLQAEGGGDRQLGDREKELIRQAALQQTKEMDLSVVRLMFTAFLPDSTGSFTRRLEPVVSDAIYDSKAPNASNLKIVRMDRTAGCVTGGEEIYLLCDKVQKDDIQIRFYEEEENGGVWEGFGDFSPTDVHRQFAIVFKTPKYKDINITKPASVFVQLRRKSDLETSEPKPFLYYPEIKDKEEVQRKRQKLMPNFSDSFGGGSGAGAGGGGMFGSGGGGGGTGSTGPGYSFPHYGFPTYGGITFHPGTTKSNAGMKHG

Row | Compound | inhibition of NF-κB (NF-κB-DNA complex formation, EMSA) (NF-κB [2]) | TD100 (concentration 100% toxic to uninfected cells) (37RC cells [3]) | inhibition of Sendai virus replication [4] | IC50 ([4]; 24 h, read-out: ID50) | further results
1 | O=C1C=CCC1 [cyclopent-2-en-1-one] |  |  |  |  | activation of HSF1 (HSF1): able to activate HSF1; block of NF-κB activation by chemical or physiological inducers (NF-κB [1]): able to block NF-κB activation
2 | CC(C)/C=C1\C(=O)C=CC1O[Si](C)(C)C(C)(C)C (stereo not drawn) [CTC-35] | potent inhibitors of NF-κB | 50 µM | potent inhibitors of Sendai virus replication |  | IC50 [4, 8]: 400 nM; IC50 [5]: 1510 nM; LD50 (Lethal dose/concentration 50%) (A549 cells): 90 µM; LD50 (Lethal dose/concentration 50%) (37RC cells [6]): 30 µM
3 | CCCCC[C@H](O)/C=C/[C@H]1[C@H](O)CC(=O)[C@@H]1CCCCCCC(=O)O [Prostaglandin E1] |  |  |  |  | effect on blood pressure [7]: dose-dependant falls in blood pressure
4 | CCCCC[C@H](O)/C=C/[C@H]1C=CC(=O)[C@@H]1CCCCCCC(=O)O [Prostaglandin A1] |  |  |  |  | effect on blood pressure [7]: dose-dependant falls in blood pressure
5 | CC(C)(C)[Si](C)(C)OC1C=CC(=O)/C1=C/c1ccccc1 (stereo not drawn) [CTC-33, 5-benzylidene-4-[(tert-butyldimethylsilyl)oxy]-2-cyclopentene-1-one] | potent inhibitors of NF-κB | 50 µM | potent inhibitors of Sendai virus replication |  | IC50 [4, 8]: 1500 nM
6 | CC(C)/C=C1/C(=O)C=CC1O[Si](C)(C)C(C)(C)C (stereo not drawn) [CTC-36] | potent inhibitors of NF-κB |  |  |  | 
7 | CC/C=C1/C(=O)C=CC1O[Si](C)(C)C(C)(C)C (stereo not drawn) [CTC-31, 4-tert.butyldimethylsilyloxy-5-(prop-1-ene)-cyclopent-2-ene-1-one] | potent inhibitors of NF-κB | 50 µM | potent inhibitors of Sendai virus replication | 1000 nM | 
8 | CCCCCCC/C=C1/C(=O)C=CC1O[Si](C)(C)C(C)(C)C (stereo not drawn) [CTC-34, 4-tert.butyldimethylsilyloxy-5-(oct-1-ene)-cyclopent-2-ene-1-one] | potent inhibitors of NF-κB | 50 µM | potent inhibitors of Sendai virus replication | 3000 nM | 
9 | CCC/C=C1/C(=O)C=CC1O[Si](C)(C)C(C)(C)C (stereo not drawn) [CTC-45, butyldimethylsilyloxy-5-[but-1-ene]-cyclopent-2-ene-1-one] | potent inhibitors of NF-κB | 50 µM | potent inhibitors of Sendai virus replication | 3000 nM | 
10 | CC(C)(C)[Si](C)(C)OC1C=CC(=O)/C1=C/c1ccccn1 (stereo not drawn) [CTC-32, 4-tert.butyldimethylsilyloxy-5-[methylene-(2-pyridyl)]-cyclopent-2-ene-1-one] |  | 10 µM |  | 2000 nM | 
